System: StpC
Experiment: Influence of StpC on biosynthesis and stability of BacCH91 in S. aureus CH-91 culture (E-64, HPLC)
Conditions: S. aureus CH-91 in TSB with or without E-64 (0.01, 0.1, 1.0 mM); samples at 5, 10, 24 h; HPLC peak area at 220 nm
Protocol: S. aureus CH-91 was cultured at 37 °C in TSB supplemented with the cysteine peptidase inhibitor E-64 (1-[N-[(L-3-trans-carboxyoxirane-2-carbonyl)-L-leucyl] amino]-4-guanidinobutane; Sigma) at final concentrations of 1.0, 0.1, and 0.01 mM. Aliquots were removed at 5, 10, and 24 h, and the bacteria-free supernatants were obtained by centrifugation.
To estimate the level of BacCH91, the collected supernatants were acidified with TFA (1 % final concentration, v/v) and filtered (0.45 μm filter). Aliquots (30 μl) were analyzed using HPLC (Kromasil C4 column, 250 × 4.6 mm; Supelco) and the same buffers as those used during the purification procedure. The column was flushed for 5 min following injection at a constant concentration of 34 % B. A linear gradient from 34 to 100 % B was then applied over 10 min at 1 ml/min. Under these conditions, BacCH91 was detected at 220 nm as a single peak eluting with a retention time of 14.6 min. The relative amount of bacteriocin was calculated as the area under the peak.

For `C/C=C(\NC(=O)[C@H](CCCCN)NC(=O)CNC(=O)[C@@H]1CS[C@@H](C)[C@@H](NC(=O)[C@@H]2CSC[C@@H](NC(=O)/C(=C/C)NC(=O)[C@@H](N)[C@@H](C)CC)C(=O)N[C@@H](Cc3ccccc3)C(=O)N[C@@H]([C@@H](C)CC)C(=O)NCC(=O)N2)C(=O)N2CCC[C@H]2C(=O)NCC(=O)N1)C(=O)NCC(=O)N[C@@H]1CSC[C@@H]2NC(=O)[C@H](Cc3ccccc3)NC(=O)[C@@H](CS/C=C\NC2=O)NC(=O)[C@H](CC(N)=O)NC(=O)[C@H](Cc2ccccc2)NC1=O` [BacCH91], the “effect of StpC on the stability of the lantibiotic in culture” value was “does not affect the stability”.

Reference: paper PMC3724985, “Isolation, biochemical characterization, and cloning of a bacteriocin from the poultry-associated Staphylococcus aureus strain CH-91” (Applied Microbiology and Biotechnology, 2012)
